Earlier results on three molecules are cited in US11884694B2, “Non-caloric sweeteners and methods for synthesizing” (Conagen Inc., priority 2014, dated 2024).

The conditions of the series: sweetness compared with sucrose.
As for `C=C1C[C@@]23CC[C@H]4[C@@](C)(CCC[C@@]4(C)C(=O)O[C@@H]4O[C@H](CO)[C@@H](O)[C@H](O)[C@H]4O)[C@@H]2CC[C@]1(O[C@@H]1O[C@H](CO)[C@@H](O)[C@H](O)[C@H]1O[C@@H]1O[C@@H](C)[C@H](O)[C@@H](O)[C@H]1O)C3` [Dulcoside A], the “times sweeter than sucrose” value is “about 30 times”. For the molecule `C=C1C[C@@]23CC[C@H]4[C@@](C)(CCC[C@@]4(C)C(=O)O[C@@H]4O[C@H](CO)[C@@H](O)[C@H](O)[C@H]4O)[C@@H]2CC[C@]1(O[C@@H]1O[C@H](CO)[C@@H](O)[C@H](O[C@@H]2O[C@H](CO)[C@@H](O)[C@H](O)[C@H]2O)[C@H]1O[C@@H]1O[C@@H](C)[C@H](O)[C@@H](O)[C@H]1O)C3` [Rebaudioside C], the “times sweeter than sucrose” value was 40-60 times.

As to `C=C1C[C@@]23CC[C@H]4[C@@](C)(CCC[C@@]4(C)C(=O)O[C@@H]4O[C@H](CO)[C@@H](O)[C@H](O)[C@H]4O)[C@@H]2CC[C@]1(O[C@@H]1O[C@H](CO)[C@@H](O)[C@H](O)[C@H]1O[C@@H]1O[C@H](CO)[C@@H](O)[C@H](O)[C@H]1O)C3` [stevioside, Stevioside], the “times sweeter than sucrose” value was 100-150 times.
